From patent publication US20130211249A1, “DRUG ELUTING HYDROGELS FOR CATHETER DELIVERY” (The Johns Hopkins University, priority 2010, published 2013) come the findings set out here.

A short description of series [1]: doxorubicin release from glucomannan alginate blends (dialysis, absorbance at 485 nm). The class given is physicochemical. The following applies: from sulfonated glucomannan calcium alginate blend; Hepes Buffered Saline with 30% FBS, 37° C., pH 7.4; n=10.
Protocol: For examination of doxorubicin release from glucomannan alginate blends, sulfated glucomannan as described above was added 1:1 with PRONOVA UP MVM alginate from FMC Biopolymers (Haugesund, Norway), and at a concentration of 2% w/v to a standard nonionic contrast agent (Iohexyl, Omnipaque 300, Amersham Health, Princeton, N.J.). To this 6 mg doxorubicin was added and the mixture was polymerized in 100 mM calcium chloride. Dox loaded hydrogels were then placed into dialysis tubing (molecular weight cut-off of 10,000 DA) sealed at both ends with clips. Dialysis tubing was then placed into a beaker containing 1000-fold excess Hepes Buffered Saline with 30% FBS and incubated at 37° C. and pH 7.4. A doxorubicin standard curve ranging from 0 to 6 mg/mL drug was prepared in saline. From these standard curves the percentage of total drug release was calculated. Doxorubicin release was monitored by measuring the time dependence of the absorbance at 485 nm.
Series [2] can be described thus: dissolution of self-gelling alginate gel by alginate lyase. The class given is biochemical. The following applies: 0.5 mL of alginate lyase added to 5 mL gel (1.5% calcium alginate, 1% sodium alginate) after 1 hour gelling. From the text:
In embodiments, a self-gelling alginate can be modified to contain an optical agent to assess localization. For example, the FDA approved optical agent inodcyanine green has used at a concentration of 0.005% to assess localization after injection with infrared. Gels can be made by mixing a solution of sodium alginate (Protanal SF 120) and a calcium alginate dispersion (Protaweld TX 120). The amount of calcium alginate can be 1.5%, and the amount of sodium alginate can be 1%. The solution and dispersion are mixed and 5 mL of the gel injected into a 50 mL conical tube. The sample was left to gel for 1 hour.

With `COc1cccc2c1C(=O)c1c(O)c3c(c(O)c1C2=O)C[C@@](O)(C(=O)CO)C[C@@H]3O[C@H]1C[C@H](N)[C@H](O)[C@H](C)O1` [doxorubicin], the doxorubicin release profile entry in series [1] is given as “eight”.

B1: alginate lyase: enzymes that catalyze the degradation of alginate (protein, listed as Pseudomonas aeruginosa)
chain: MKTSHLIRIALPGALAAALLASQVSQAADLVPPPGYYAAVGERKGSAGSCPAVPPPYTGSLVFTSKYEGSDSARATLNVKAEKTFRSQIKDITDMERGATKLVTQYMRSGRDGDLACALNWMSAWARAGALQSDDFNHTGKSMRKWALGSLSGAYMRLKFSSSRPLAAHAEQSREIEDWFARLGTQVVRDWSGLPLKKINNHSYWAAWSVMSTAVVTNRRDLFDWAVSEFKVAANQVDEQGFLPNELKRRQRALAYHNYALPPLAMIAPFAQVNGVDLRQENHGALQRLAERVMKGVDDEETFEEKTGEDQDMTDLKVDNKYAWLEPYCALYRCEPNACSRPKKDREPFNSFRLGGEVTRVFSREGGS
Take B1: the “dissolution of hardened alginate gel” value in series [2] was “complete dissolution”.
